From patent US5712417A, “Inhibitors of retroviral proteases” (Abbott Laboratories, priority 1989, dated 1998)
pIC50: −log10 of the molar value. Where a name gives a salt, the structure may show the parent alone. Read-outs that look alike come from different tables or passages of the source.

Target: T1, HIV protease (Human immunodeficiency virus type 1 group M subtype B, UniProt P04585)
T1 construct: HIV protease consists of 99 amino acids and is evidently split off by itself from the pol polyprotein
Assay: Inhibition of HIV protease (cleavage of H-Ser-Phe-Asn-Phe-Opr-Gln-Ile-OH, HPLC)
Type: biochemical
Excerpt: The compounds of the formula (I) according to the invention have enzyme-inhibiting properties. In particular, they inhibit the action of retroviral aspartyl proteases, such as that of HIV protease. Their enzyme-inhibitory action, which is in the milli- to subnanomolar range, can be determined as follows.
The heptapeptide: H-Ser-Phe-Asn-Phe-Pro-Gln-Ile-OH (P. L. Darke et al., Biophys. Res. Commun. 156 (1988) 297-303), inter alia, has hitherto been used as the substrate of HIV protease. HIV protease cleaves the substrate here between the second Phe and Pro.
General instructions for testing inhibitors of HIV proteases: a) Preparation of the substrate solution:
2 mg of H-Ser-Phe-Asn-Phe-Opr-Gln-Ile-OH (H-Opr-OH=5-oxaproline) are dissolved in 1 ml of MGTE15 buffer (use of ultrasound if necessary) and the solution is then filtered over a sterile filter (0.45 μm). […]
b) Preparation of the inhibitor solution:
2.5 times the desired molarity of the inhibitor per ml of solution are weighed out and dissolved in DMSO (10% of the final volume). The solution is diluted to the final volume with MGTE15 buffer and filtered over a sterile filter (0.45 μm). […]
c) Preparation of the protease solution:
5 μl of the HIV protease solution are diluted with MGTE25 buffer as required.
10 μl portions of the substrate solution are pipetted into test-tubes (16×100) with a screw cap. For the blank experiment, 10 μl of MGTE15 buffer containing 10% of DMSO are pipetted into a test-tube. 10 μl portions of the inhibitor solutions are added to the other test-tubes. The mixtures are incubated at 37° C. for 5-10 minutes and 5 μl of the protease solution are then added to each sample, After reaction at 35° C. for 2 hours, 10 or 20 μl (depending on the sensitivity of the HPLC apparatus) of each sample are then pipetted off, introduced into microvials and diluted with 120 μl of the HPLC mobile phase. […]
e) Conditions for the HPLC analysis:
20% (weight/weight) of aceto-
Column: Merck ®LICHROSORB RP18 (5 μm) 250×4
Column temperature: 42° C.
Detector parameters: 215 nm, 0.08 AUF, 18.2° C.
Analysis time: 11 minutes
Retention time of the substrate: 8.1 minutes
Retention time of the N-terminal tetrapeptide: 3.9 minutes
20 mM morpholinoethanesulfonic acid (MES)
15% (weight/volume) of glycerol
0.1% (volume/volume) of Triton ×100
1 mM phenylmethylsulfonyl fluoride (PMSF)
25% (weight/volume) of glycerol, additionally 1 mM dithiothreitol (DTT) The MES, EDTA, NaCl, DTT and PMSF are weighed into a conical flask and dissolved in a little water and the pH is brought to 6. The corresponding amount of glycerol is weighed into a measuring flask and ®Triton ×100 is pipetted in. The aqueous solution is transferred to the measuring flask and made up to the mark with water.
A 0.1M solution is prepared from orthophosphoric acid (FLUKA extra pure analytical grade). This solution is brought to exactly pH 2.5 with triethylamine (FLUKA extra pure analytical grade). The weight of the solution is determined and the corresponding amount of acetonitrile (fume cupboard) is weighed in. The mixture is mixed thoroughly and degassed with helium 5.0 for about 5 minutes.
Under the conditions chosen here, heptapeptides are separated from the N-terminal tetrapeptide formed during enzymatic cleavage. The percentage content of the tetrapeptide peak in respect of the sum of tetrapeptide+heptapeptide corresponds to the cleaving rate. The following IC50 values indicate the inhibitor concentration at which the cleavage rate is halved.

[1] = inhibitor concentration at which the cleavage rate is halved, pH 6, 2 hours, read-out: IC50

Compound	pIC50 [1]	further results
CC(C)[C@H](NC(=O)C(Cc1ccccc1)Cn1ccnc1)C(=O)N[C@@H](Cc1ccccc1)[C@H](O)[C@@H](O)[C@H](Cc1ccccc1)NC(=O)[C@@H](NC(=O)C(Cc1ccccc1)Cn1ccnc1)C(C)C (single isomer, unassigned) [Example 95, N,N'-bis-<(2-(1-Imidazolylmethyl)-3-phenylpropionyl)-L-valyl->-2S,5S-diamino-1,6-diphenylhexane-3S,4S-diol]	6.42	–
CC(C)C(NC(=O)C(CN)Cc1ccccc1)C(=O)NC(Cc1ccccc1)C(O)C(O)C(Cc1ccccc1)NC(=O)C(NC(=O)C(CN)Cc1ccccc1)C(C)C (single isomer, unassigned) [Example 104, N,N'-bis-<(3-Amino-2-benzyl)-propionyl-L-valyl>-2S,5S-diamino-1,6-diphenylhexane-3R,4R-diol dihydrochloride]	7.62	–
CC(C)[C@H](NC(=O)C(CNC(=O)OC(C)(C)C)Cc1ccccc1)C(=O)N[C@@H](Cc1ccccc1)[C@@H](O)[C@H](O)[C@H](Cc1ccccc1)NC(=O)[C@@H](NC(=O)C(CNC(=O)OC(C)(C)C)Cc1ccccc1)C(C)C (single isomer, unassigned) [Example 105, N,N'-bis-<(2-Benzyl-3-tert.-butoxycarbonylamino)-propionyl-L-valyl>-2S,5S-diamino-1,6-diphenylhexane-3R,4R-diol]	7.72	–
CC(C)[C@H](NC(=O)[C@H](Cc1ccccc1)NC(=O)OC(C)(C)C)C(=O)N[C@@H](Cc1ccccc1)[C@@H](O)[C@H](O)[C@H](Cc1ccccc1)NC(=O)[C@@H](NC(=O)[C@H](Cc1ccccc1)NC(=O)OC(C)(C)C)C(C)C [Example 1, N,N,-bis-(tert.-Butoxycarbonyl-L-phenylalanyl-L-valyl)-2S,5S-diamino-1,6-diphenylhexane-3R,4R-diol]	8.00	–
CC(C)(C)OC(=O)N[C@@H](Cc1ccccc1)[C@H](O)[C@H](O)[C@H](Cc1ccccc1)NC(=O)OC(C)(C)C [Example 5, N,N'-bis-(tert.-Butoxycarbonyl)-2S,5S-diamino-1,6-diphenylhexane-3R,4S-diol]	–	pIC50 (read-out: IC50): 5.44
CC(C)[C@H](NC(=O)[C@H](Cc1ccccc1)NC(=O)OC(C)(C)C)C(=O)N[C@@H](Cc1ccccc1)[C@H](O)[C@@H](O)[C@H](Cc1ccccc1)NC(=O)[C@@H](NC(=O)[C@H](Cc1ccccc1)NC(=O)OC(C)(C)C)C(C)C [Example 6, N,N'-bis-(tert.-Butoxycarbonyl-L-phenylalanyl-L-valyl)-2S,5S-diamino-1,6-diphenylhexane-3S,4S-diol]	8.06	–
CC(C)[C@H](NC(=O)[C@H](Cc1ccccc1)NC(=O)OC(C)(C)C)C(=O)N[C@@H](Cc1ccccc1)[C@H](O)[C@H](O)[C@H](Cc1ccccc1)NC(=O)[C@@H](NC(=O)[C@H](Cc1ccccc1)NC(=O)OC(C)(C)C)C(C)C [Example 7, N,N'-bis-(tert.-Butoxycarbonyl-L-phenylalanyl-L-valyl)-2S,5S-diamino-1,6-diphenylhexane-3R,4S-diol]	7.74	–
CC(C)[C@H](NC(=O)OC(C)(C)C)C(=O)N[C@@H](Cc1ccccc1)[C@H](O)[C@@H](O)[C@H](Cc1ccccc1)NC(=O)[C@@H](NC(=O)OC(C)(C)C)C(C)C [Example 8, N,N'-bis-(tert.-Butoxycarbonyl-L-valyl)-2S,5S-diamino-1,6-diphenylhexane-3S,4S-diol]	–	pIC50 (inhibitor concentration at which the cleavage rate is halved, unit as printed for Ex. 8, read-out: IC50): 4.52
CC(C)[C@H](NC(=O)[C@@H](N)CCCCN)C(=O)N[C@@H](Cc1ccccc1)[C@@H](O)[C@H](O)[C@H](Cc1ccccc1)NC(=O)[C@@H](NC(=O)[C@@H](N)CCCCN)C(C)C [Example 10, N,N'-bis-(L-lysyl-L-valyl)-2S,5S-diamino-1,6-diphenylhexane-3R,4R-diol tetrahydrochloride]	7.77	–
CC(C)[C@H](NC(=O)[C@H](CCCCN)NC(=O)OC(C)(C)C)C(=O)N[C@@H](Cc1ccccc1)[C@@H](O)[C@H](O)[C@H](Cc1ccccc1)NC(=O)[C@@H](NC(=O)[C@H](CCCCN)NC(=O)OC(C)(C)C)C(C)C [Example 11, N,N'-bis-(Nα-<tert.-Butoxycarbonyl>-L-lysyl-L-valyl)-2S,5S-diamino-1,6-diphenyl-hexane-3R,4R-diol dihydrochloride]	9.10	–
CC(C)[C@H](NC(=O)[C@H](Cc1cccc2ccccc12)CS(=O)(=O)C(C)(C)C)C(=O)N[C@@H](Cc1ccccc1)[C@@H](O)[C@H](O)[C@H](Cc1ccccc1)NC(=O)[C@@H](NC(=O)[C@H](Cc1cccc2ccccc12)CS(=O)(=O)C(C)(C)C)C(C)C [Example 13, N,N'-bis-<(2S-(1,1-Dimethylethylsulfonylmethyl)-3-(1-naphthyl)-propionyl)-L-valyl>-2S,5S-diamino-1,6-diphenylhexane-3R,4R-diol]	–	pIC50 (inhibitor concentration at which the cleavage rate is halved, unit as printed for Ex. 13, read-out: IC50): 8.89
CC(C)[C@H](NC(=O)[C@H](Cc1ccccc1)NC(=O)[C@@H](N)CO)C(=O)N[C@@H](Cc1ccccc1)[C@@H](O)[C@H](O)[C@H](Cc1ccccc1)NC(=O)[C@@H](NC(=O)[C@H](Cc1ccccc1)NC(=O)[C@@H](N)CO)C(C)C [Example 14, N,N'-bis-(L-Seryl-L-phenylalanyl-L-valyl)-2S,5S-diamino-1,6-diphenylhexane-3R,4R-diol dihydrochloride]	9.00	–
CC(C)[C@H](NC(=O)[C@H](Cc1ccccc1)NC(=O)[C@H](COC(C)(C)C)NC(=O)OC(C)(C)C)C(=O)N[C@@H](Cc1ccccc1)[C@@H](O)[C@H](O)[C@H](Cc1ccccc1)NC(=O)[C@@H](NC(=O)[C@H](Cc1ccccc1)NC(=O)[C@H](COC(C)(C)C)NC(=O)OC(C)(C)C)C(C)C [Example 15, N,N'-bis-(tert.-Butoxycarbonyl-L-(O-tert.-butylseryl)-L-phenylalanyl-L-valyl)-2S,5S-diamino-1,6-diphenyl-hexane-3R,4R-diol]	–	pIC50: 6.40
CC(C)[C@H](NC(=O)[C@@H](N)Cc1ccccc1)C(=O)N[C@@H](Cc1ccccc1)[C@H](O)[C@@H](O)[C@H](Cc1ccccc1)NC(=O)[C@@H](NC(=O)[C@@H](N)Cc1ccccc1)C(C)C [Example 17, N,N'-bis-(L-Phenylalanyl-L-valyl)-2S,5S-diamino-1,6-diphenylhexane-3S,4S-diol dihydrochloride]	9.07	–
CC(C)[C@H](NC(=O)[C@@H](N)Cc1ccccc1)C(=O)N[C@@H](Cc1ccccc1)[C@H](O)[C@H](O)[C@H](Cc1ccccc1)NC(=O)[C@@H](NC(=O)[C@@H](N)Cc1ccccc1)C(C)C [Example 18, N,N'-bis-(L-Phenylalanyl-L-valyl)-2S,5S-diamino-1,6-diphenylhexane-3R,4S-diol dihydrochloride]	–	pIC50 (read-out: IC50): 8.92
CC(C)[C@H](NC(=O)[C@H](Cc1ccccc1)NC(=O)[C@@H](N)CO)C(=O)N[C@@H](Cc1ccccc1)[C@H](O)[C@@H](O)[C@H](Cc1ccccc1)NC(=O)[C@@H](NC(=O)[C@H](Cc1ccccc1)NC(=O)[C@@H](N)CO)C(C)C [Example 19, N,N'-bis-(L-Seryl-L-phenylalanyl-L-valyl)-2S,5S-diamino-1,6-diphenylhexane-3S,4S-diol dihydrochloride]	9.15	–
CC(C)[C@H](NC(=O)[C@@H](N)Cc1ccccc1)C(=O)N[C@H](CNC[C@H](Cc1ccccc1)NC(=O)[C@@H](NC(=O)[C@@H](N)Cc1ccccc1)C(C)C)Cc1ccccc1 [Example 21, Bis-(N-(L-phenylalanyl-L-valyl)-2S-amino-3-phenylpropyl)-amine trihydrochloride]	6.66	–
CC(C)(C)OC(=O)N[C@H](CNC[C@H](Cc1ccccc1)NC(=O)OC(C)(C)C)Cc1ccccc1 [Example 25, Bis-(N-tert.-butoxycarbonyl-2S-amino-3-phenylpropyl)-amine hydrochloride]	4.74	–
